Data set [1] is described as follows: Differential scanning calorimetry (DSC) analysis. The data set is classed as physicochemical. The procedure: DSC analyses were recorded either in a Mettler Toledo DSC822e or using a DSC-821 Mettler-Toledo, serial number 5117423874. In the case of a Mettler Toledo DSC822e equipment, samples of 1-3 mg were weighted (using a microscale MX5, Mettler) into 40 μL aluminium crucibles with a pinhole lid, and were heated, under nitrogen flow (50 mL/min), from 30 to 300° C. at a heating rate of 10° C./min. Data collection and evaluation was done with software STARe. In case of a DSC-821 Mettler-Toledo, serial number 5117423874 equipment, samples were weighed into an aluminium pan, an aluminium pinhole lid placed on top of the sample and compressed with a brass rod. Samples were equilibrated at 25° C. and heated at 10° C./min to 300° C. The instrument was calibrated using indium and zinc standards.
On the technique in general: DSC measures the heat that a sample takes up or gives off during a temperature scan.

A short description of data set [2]: Thermogravimetric (TG) analysis. The note with it: for TG analysis: temperature until which no significant changes are observed (then loss of mass / decomposition): heated at 10° C./min between 30 and 300° C., nitrogen flow. The format is physicochemical. The method, then:
Thermogravimetric analyses were recorded in a Mettler Toledo SDTA851e. Samples of 1-3 mg were weighted (using a microscale MX5, Mettler) 40 μL aluminium crucibles with a pinhole lid, and were heated at 10° C./min between 30 and 300° C., under nitrogen flow (50 mL/min). Data collection and evaluation was done with software STARe.

Consider `CN(CCCn1nnc2cc(CNC[C@H](O)c3ccc(O)c4[nH]c(=O)ccc34)ccc21)[C@H]1CC[C@H](OC(=O)C(O)(c2cccs2)c2cccs2)CC1.O=C1NS(=O)(=O)c2ccccc21` (relative stereo) [Example 1, trans-4-[{3-[5-({[(2R)-2-hydroxy-2-(8-hydroxy-2-oxo-1,2-dihydroquinolin-5-yl)ethyl]amino}methyl)-1H-1,2,3-benzotriazole-1-yl]propyl}(methyl)-amino]cyclohexyl hydroxy(di-2-thienyl)acetate saccharinate], for which the “stability (no conversion into other polymorphs, no decomposition below the DSC endotherm)” value in data set [1] was “high stability”. In data set [1] (heating rate 10° C./min), the “DSC endothermic curve onset (possible decomposition of the salt)” value is “about 170 °C”. In data set [2], the “TG analysis: temperature until which no significant changes are observed (then loss of mass / decomposition)” value is 130-140 °C. In addition, in data set [2] (no change prior to 140° C., in particular at 80-100° C.), the “hygroscopicity (no solvent/water release in TG)” value is given as “lack of hygroscopicity”.
For the molecule `CN(CCCn1c(=O)sc2cc(CNC[C@H](O)c3ccc(O)c4[nH]c(=O)ccc34)ccc21)[C@H]1CC[C@H](OC(=O)C(O)(c2cccs2)c2cccs2)CC1.O=C(O)/C=C/C(=O)O` [Example 2, trans-4-[{3-[6-({[(2R)-2-hydroxy-2-(8-hydroxy-2-oxo-1,2-dihydroquinolin-5-yl)ethyl]amino}methyl)-2-oxo-1,3-benzothiazole-3(2H)-yl]propyl}(methyl)amino]cyclohexyl hydroxy(di-2-thienyl)acetate fumarate], the “stability (no conversion into other polymorphs, no decomposition below the DSC endotherm)” value in data set [1] is recorded as “high stability”. The “DSC endothermic curve maximum (possible fusion/decomposition of the salt)” value in data set [1] (heating rate 10° C./min) was found to be 134 °C. The “TG analysis: temperature until which no significant changes are observed (then loss of mass / decomposition)” value in data set [2] was “about 140 °C”.

Values taken from patent US9579316B2, “Salts of 2-amino-1-hydroxyethyl-8-hydroxyquinolin-2(1H)-one derivatives having both muscarinic receptor antagonist and β2 adrenergic receptor agonist activities” (priority 2013, dated 2017).
